From patent US20130171103A1, “METHODS FOR TREATING VIRAL CONDITIONS” (PTC Therapeutics, Inc., priority 2010, published 2013)
Values joined by “and” are separate entries in the source; they are usually repeats but may differ in a detail not shown here. Equal values may be shown once.

Assays:
in vitro [1] = settings: dog
HCV genotype 1b replicon = experiment: HCV subgenomic replicon assay, genotype 1b, standard cell culture; format: cell-based, hepatitis C virus
HT1080 cells = experiment: Cell cycle analysis by propidium iodide staining and flow cytometry; format: cell-based; settings: for effect on cell cycle distribution / % Cells In S-Phase: normoxic; for effect on cell cycle distribution: #10 0.3-100 nM, 1205 10 nM; for % Cells In S-Phase: HT1080 cells, 100 nM, 18 hours, DMSO control 17.3, >20% considered active
HIV-1 [2] = experiment: HIV-1 p24 ELISA assay in PBMCs; format: cell-based; settings: Human immunodeficiency virus 1, PBMC, HIV-1, Retro
Method: (§1) The activity against HIV-1 was tested in MT2 cells and PBMCs in cell culture by preventing virus induced cytopathic effect and measuring viral p24 protein in the culture supernatant.

RSV = RSV CPE protection assay in Vero cells; format: cell-based; settings: human respiratory syncytial virus
in vitro [3] = settings: African green monkey, CC50 (μM)
[4] = Phase 1a single-dose study in healthy volunteers; format: in vivo, human; settings: healthy subjects, single doses through 3 mg/kg (~210 mg), highest single dose tested
Method: Initial clinical evaluation of Compound #10 was performed in healthy volunteers.

[5] = Cytotoxicity (CC50) in HeLa cells; settings: human
Dengue 2 = Dengue 2 CPE protection assay in Vero E6 cells; format: cell-based; settings: Dengue virus, Vero C1008, Dengue 2, (+) RNA
HT 1080 cells = experiment: Kinetics of S-phase transit by BrdU incorporation into DNA; format: cell-based; settings: 18-hour treatment
Method: HT 1080 cells are exposed to BrdU (bromodeoxyuridine, a synthetic nucleoside that is an analogue of thymidine and is incorporated into DNA during the S phase of cell division) (FITC BrdU Flow Kit, BD Pharmingen catalog #552598). Cells are grown and treated as described in Section 9.3.1.3 above with the exception that one hour prior to harvesting by trypsinization, BrdU (final concentration 1 μM) is added to each culture for 1 hour. Cells actively replicating DNA during this brief time incorporate the BrdU into the DNA, which can then be quantified. BrdU content is quantified using the FITC BrdU Flow Kit as instructed by the manufacturer. The process includes fixation (paraformaldehyde) and DNA staining with 7-AAD (7-amino-actinomycin D) followed by incubation with a fluoro-tagged anti-BrdU antibody that specifically recognizes BrdU incorporated into DNA. Dual channel FACS analysis permits assessment of both the DNA content of individual cells and the rate of transit across the S-phase, which is assessed based upon BrdU incorporation over the one hour treatment period.

[6] = Toxicology study in dogs through 28 days; format: in vivo; settings: doses and exposures in excess of therapeutic nonclinical doses
Description: (§2) Nonclinical safety testing further supports clinical development of Compound #10.

[7] = Toxicology study in rats through 28 days; format: in vivo; settings: doses and exposures in excess of therapeutic nonclinical doses
Description: as §2

HT1080 spheroids = experiment: 3-dimensional growth of HT1080 spheroids (BrdU/7-AAD FACS, morphology); format: cell-based
Parainfluenza = Parainfluenza CPE protection assay in Vero cells; format: cell-based, parainfluenza virus; settings: (−) RNA
[8] = Cytotoxicity (CC50) in MT-2 cells; format: cell-based; settings: human, MT-2, HIV-1 line
Influenza A = experiment: microbe, parasite or virus in culture; format: cell-based; settings: MDCK
[9] = Cytotoxicity (CC50) in PBMCs; format: cell-based; settings: human, HIV-1 line
Adenovirus = Adenovirus CPE protection assay in HeLa cells; format: cell-based; settings: unidentified adenovirus, DNA
HIV-1 [10] = experiment: HIV-1 CPE protection assay in MT-2 cells; format: cell-based; settings: Human immunodeficiency virus 1, MT2; HIV-1, Retro, MT-2, CPE protection
Method: as §1

Vero = settings: WNV line
in vitro [11] = settings: human
Genotoxicity studies = experiment: Genotoxicity studies
Description: as §2

[12] = Safety pharmacology studies
Description: as §2

[13] = Phase 1b and Phase 2 studies in patients with neoplasia (safety); format: in vivo, human; settings: 0.3 mg/kg/dose BID to 200 mg/dose TID, at least 4-6 weeks
Method: To date, doses of 0.3 mg/kg/dose (˜20 mg/dose) (n=6), 0.6 mg/kg/dose (˜40 mg/dose) (n=9), 1.2 mg/kg/dose (˜80 mg/dose) (n=12) BID have been tested for at least 4 weeks. In addition, 100 mg/dose BID (n=52), 100 mg/dose TID (n=6), 120 mg/dose TID (n=3), 160 mg/dose TID (N=3), and 200 mg/dose TID (n=3) have been tested for at least 6 weeks of continuous treatment.

HSV-1 = HSV-1 CPE protection assay in Vero cells; format: cell-based, herpes simplex virus-1; settings: Human alphaherpesvirus 1, HSV-1, DNA
in vitro [14] = settings: African green monkey
[15] = Bioavailability in vivo from aqueous suspension; settings: administered in an aqueous suspension
Method: It is anticipated that Compound 1205 can be clinically administered via a solid-dosage form. For all the studies outlined herein, Compound 1205 was lyophilized prior to formulation to minimize batch-to-batch variations in particle-size.
The compound was dissolved in acetonitrile at a concentration of 15 mg/mL. An equal amount of water was added to bring the final concentration to 7.5 mg/mL in a 1:1 acetonitrile/water solution (v/v). The solution was frozen on the shelf of the freeze dryer for a minimum of 3 hours and then lyophilized. The resulting solid was determined to be amorphous by differential scanning calorimetry and polarized light microscopy. Suspensions were prepared by the addition of 0.5% HPMC with 1% Tween-80, followed by stirring and homogenization for 2 minutes.

SMILES: COc1ccc([C@H]2c3[nH]c4ccc(Cl)cc4c3CCN2C(=O)Oc2ccc(Cl)cc2)cc1 (racemic) [#10]
- CC50 (in vitro [1]): > 1000 nM
- antiviral activity in HCV replicon systems (HCV genotype 1b replicon): potent in vitro inhibitory activity
- concentration from which an accumulation of cells in S phase is observed (HT1080 cells; HT1080, 18 hours): ≥ 1 nM
- effect on cell cycle distribution (HT1080 cells; HT1080, 18 hours): induced a redistribution of the cycling characteristics of the cell population
- IC50 (HIV-1 [2]): > 1000 nM
- IC50 (RSV): 250 nM
- IC90 (RSV): ≥ 160 nM
- CC50 (in vitro [3]): 0.7 µM and 0.083 µM
- clinical safety [4]: acceptable safety
- CC50 [5]: > 1000 nM
- IC50 (Dengue 2): > 1000 nM
- IC90 (Dengue 2): > 1000 nM
- BrdU incorporated by individual cells during one-hour pulse versus DMSO control (HT 1080 cells): less BrdU
- percentage of cells residing in S-phase (HT 1080 cells; increasing doses (1-100 nM)): net increase
- tolerability in toxicology study [6]: good tolerability
- tolerability in toxicology study [7]: good tolerability
- percentage of spheroid cells that incorporated BrdU (cells in S-phase) (HT1080 spheroids; 24 or 48 hours, 10 nM or 50 nM): not significantly altered
- gross morphology of spheroids (HT1080 spheroids; day 5 of treatment, 10 nM or 50 nM): indistinguishable from one another
- morphology of spheroids (HT1080 spheroids; maintained in presence of compound for three weeks): no obvious morphological changes
- cell cycle distribution of HT1080 spheroids (HT1080 spheroids; treated for 24 hours): not affected
- cell cycle distribution of HT1080 spheroids (HT1080 spheroids; treated for 48 hours): not affected
- IC50 (Parainfluenza): 29 nM
- IC90 (Parainfluenza): 44 nM
- CC50 [8]: 4.1 nM
- IC50 (Influenza A): > 1000 nM
- IC90 (Influenza A): > 1000 nM
- CC50 [9]: 680 nM
- IC50 (Adenovirus): > 1000 nM
- IC90 (Adenovirus): > 1000 nM
- IC50 (HIV-1 [10]): 22 nM
- CC50 (Vero): > 1000 nM
- CC50 (in vitro [11]): > 1000 nM
- genotoxicity finding (Genotoxicity studies): no evidence of genotoxic effects
- safety pharmacology finding [12]: no adverse off-target effects
- clinical tolerability [13]: generally well tolerated
- IC50 (HSV-1): > 1000 nM
- IC90 (HSV-1): > 1000 nM
- CC50 (in vitro [14]): > 1000 nM

SMILES: O=C(Oc1ccc(Cl)cc1)N1CCc2c([nH]c3ccc(Cl)cc23)C1c1ccc(OCCN2CCOCC2)cc1 (stereo not drawn) [Compound 331]
- % Cells In S-Phase (HT1080 cells): 16.4%

SMILES: O=C(Oc1ccc(Cl)cc1)N1CCc2c([nH]c3ccc(Cl)cc23)[C@@H]1c1ccc(OCC[C@H](O)CO)cc1 [Compound 1205]
- bioavailability in vivo [15]: bioavailable
- effect on cell cycle distribution (HT1080 cells; HT1080, 18 hours): induced a redistribution of the cycling characteristics of the cell population

SMILES: O=C(Oc1ccc(Cl)cc1)N1CCc2c([nH]c3ccc(Cl)cc23)C1c1ccc(OCCN2CCCCC2)cc1 (stereo not drawn) [Compound 1736]
- % Cells In S-Phase (HT1080 cells): 16.8%
